Assay results: patent US20240174624A1, “CHIRAL N-(1,3,4-OXADIAZOLE-2-YL)PHENYL CARBOXYLIC ACID AMIDES AND THEIR USE AS HERBICIDES” (Bayer Aktiengesellschaft, priority 2021, published 2024)

Assays:
MATIN [1] = test: Post-emergence herbicidal action; assay type: in vivo, Matricaria inodora; details: assessed after about 3 weeks
Method in brief: (§1)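 Greenhouse plants in sandy loam treated at the one-leaf stage, 2–3 weeks after sowing, by spraying WP or EC formulations as aqueous suspension/emulsion at 600–800 l/ha with 0.2% wetting agent. Visual assessment after about 3 weeks versus untreated controls, as percent action (100% = plants dead, 0% = like control).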

TRZAS [2] = test: Pre-emergence damage to crop plants; assay type: in vivo, Triticum aestiva; details: 80 g a.i./ha, comparative experiment
Description: (§2) Seeds of monocotyledonous and dicotyledonous weed plants and crop plants are laid out in sandy loam soil in wood-fibre pots and covered with soil. The compounds of the invention, formulated in the form of wettable powders (WP) or as emulsion concentrates (EC), are then applied to the surface of the covering soil in the form of an aqueous suspension or emulsion at a water application rate equivalent to 600 to 800 l/ha, with addition of 0.2% wetting agent. After the treatment, the pots are placed in a greenhouse and kept under good growth conditions for the trial plants. The damage to the test plants is scored visually after a test period of 3 weeks by comparison with untreated controls (herbicidal activity in percent (%): 100% activity=the plants have died, 0% activity=like control plants). […] The tables below illustrate, in an illustrative manner, the post-emergence herbicidal action of the compounds of the invention, the herbicidal activity being stated in percent. In the experiments that follow, the herbicidal action of the compounds of the invention and that of the corresponding known racemic compounds closest from WO2012126932 and WO2018202535 were compared under the above-specified conditions by the pre-emergence and post-emergence method. The example numbers given in the tables relate to the compounds disclosed in the respective documents.

ZEAMX [3] = test: Post-emergence damage to crop plants; assay type: in vivo, Zea mays; details: 80 g a.i./ha, comparative experiment
Procedure: (§3) Seeds of monocotyledonous and dicotyledonous weed and crop plants are laid out in sandy loam soil in wood-fibre pots, covered with soil and cultivated in a greenhouse under good growth conditions. 2 to 3 weeks after sowing, the test plants are treated at the one-leaf stage. The compounds of the invention, formulated in the form of wettable powders (WP) or as emulsion concentrates (EC), are then sprayed onto the green parts of the plants in the form of an aqueous suspension or emulsion at a water application rate equating to 600 to 800 l/ha, with addition of 0.2% wetting agent. After the test plants have been left to stand in the greenhouse under optimal growth conditions for about 3 weeks, the action of the preparations is assessed visually in comparison to untreated controls (herbicidal action in percent (%): 100% activity=the plants have died, 0% activity=like control plants). […] The tables below illustrate, in an illustrative manner, the post-emergence herbicidal action of the compounds of the invention, the herbicidal activity being stated in percent. In the experiments that follow, the herbicidal action of the compounds of the invention and that of the corresponding known racemic compounds closest from WO2012126932 and WO2018202535 were compared under the above-specified conditions by the pre-emergence and post-emergence method. The example numbers given in the tables relate to the compounds disclosed in the respective documents.

VERPE = test: Post-emergence herbicidal action; assay type: in vivo, Veronica persica; details: 20 g/ha, assessed after about 3 weeks
Method in brief: (§4)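 Herbicidal effect is expressed as visually estimated percent, where 0% equals untreated controls and 100% equals plant death, read roughly 3 weeks after foliar application at the one-leaf stage in the greenhouse.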

ZEAMX [4] = test: Pre-emergence damage to crop plants; assay type: in vivo, Zea mays; details: 320 g a.i./ha, comparative experiment
Method in brief: (§5)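 Greenhouse pre-emergence pot test in sandy loam; aqueous WP/EC spray at 600 to 800 l/ha with 0.2% wetting agent applied after sowing. Values are visual % damage at 3 weeks, where 0% equals control plants and 100% means plants died.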

POLCO [5] = test: Post-emergence herbicidal action; assay type: in vivo, Polygonum convolvulus; details: 20 g/ha, assessed after about 3 weeks
Procedure: as §3, with “percent.” for “percent. In the experiments that follow, the herbicidal action of the compounds of the invention and that of the corresponding known racemic compounds closest from WO2012126932 and WO2018202535 were compared under the above-specified conditions by the pre-emergence and post-emergence method. The example numbers given in the tables relate to the compounds disclosed in the respective documents.”

ORYZA [6] = test: Pre-emergence damage to crop plants; assay type: in vivo, Oryza sativa; details: 80 g a.i./ha, comparative experiment
Description: as §2

POLCO [7] = test: Pre-emergence herbicidal action; assay type: in vivo, Polygonum convolvulus; details: 80 g/ha, scored after 3 weeks
Method in brief: as §5

SETVI [8] = test: Pre-emergence herbicidal action; assay type: in vivo, Setaria viridis; details: scored after 3 weeks
Method in brief: as §5

PHBPU [9] = test: Pre-emergence herbicidal action; assay type: in vivo, Pharbitis purpurea; details: 80 g/ha, scored after 3 weeks
Description: as §2, with “percent.” for “percent. In the experiments that follow, the herbicidal action of the compounds of the invention and that of the corresponding known racemic compounds closest from WO2012126932 and WO2018202535 were compared under the above-specified conditions by the pre-emergence and post-emergence method. The example numbers given in the tables relate to the compounds disclosed in the respective documents.”

SETVI [10] = test: Post-emergence herbicidal action; assay type: in vivo, Setaria viridis; details: assessed after about 3 weeks
Method in brief: as §4

TRZAS [11] = test: Post-emergence damage to crop plants; assay type: in vivo, Triticum aestiva; details: 80 g a.i./ha, comparative experiment
Method in brief: as §4

AVEFA [12] = test: Pre-emergence herbicidal action; assay type: in vivo, Avena fatua; details: 80 g/ha, scored after 3 weeks
Method in brief: as §5

VIOTR [13] = test: Pre-emergence herbicidal action; assay type: in vivo, Viola tricolor; details: scored after 3 weeks
Method in brief: (§6)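 Weed and crop seeds were sown in sandy loam, and WP or EC formulations were sprayed onto the covering soil at 600 to 800 l/ha water with 0.2% wetting agent. After 3 weeks in a greenhouse, damage was scored visually against untreated controls as percent activity (100% = plants dead).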

ALOMY = test: Pre-emergence herbicidal action; assay type: in vivo, Alopecurus myosuroides; details: 80 g/ha, scored after 3 weeks
Method in brief: as §5

MATIN [14] = test: Pre-emergence herbicidal action; assay type: in vivo, Matricaria inodora; details: scored after 3 weeks
Method in brief: as §5

AMARE [15] = test: Post-emergence herbicidal action; assay type: in vivo, Amaranthus retroflexus; details: assessed after about 3 weeks
Method in brief: as §1

ECHCG [16] = test: Pre-emergence herbicidal action; assay type: in vivo, Echinochloa crus-galli; details: scored after 3 weeks
Method in brief: as §6

ECHCG [17] = test: Post-emergence herbicidal action; assay type: in vivo, Echinochloa crus-galli; details: assessed after about 3 weeks
Method in brief: as §4

ORYZA [18] = test: Post-emergence damage to crop plants; assay type: in vivo, Oryza sativa; details: 80 g a.i./ha, comparative experiment
Procedure: as §3

PHBPU [19] = test: Post-emergence herbicidal action; assay type: in vivo, Pharbitis purpurea; details: assessed after about 3 weeks
Procedure: as §3, with “percent.” for “percent. In the experiments that follow, the herbicidal action of the compounds of the invention and that of the corresponding known racemic compounds closest from WO2012126932 and WO2018202535 were compared under the above-specified conditions by the pre-emergence and post-emergence method. The example numbers given in the tables relate to the compounds disclosed in the respective documents.”

AVEFA [20] = test: Post-emergence herbicidal action; assay type: in vivo, Avena fatua; details: 20 g/ha, assessed after about 3 weeks
Procedure: as §3, with “percent.” for “percent. In the experiments that follow, the herbicidal action of the compounds of the invention and that of the corresponding known racemic compounds closest from WO2012126932 and WO2018202535 were compared under the above-specified conditions by the pre-emergence and post-emergence method. The example numbers given in the tables relate to the compounds disclosed in the respective documents.”

AMARE [21] = test: Pre-emergence herbicidal action; assay type: in vivo, Amaranthus retroflexus; details: scored after 3 weeks
Method in brief: as §6

VIOTR [22] = test: Post-emergence herbicidal action; assay type: in vivo, Viola tricolor; details: assessed after about 3 weeks
Procedure: as §3

## C[S+]([O-])c1c(C(F)(F)F)ccc(C(=O)Nc2nnco2)c1Cl (stereo in doubt) [Example I-1, 2-chloro-N-(1,3,4-oxadiazol-2-yl)-3-[(S)-methylsulfinyl]-4-(trifluoromethyl)benzamide]
MATIN [1]; 5 g/ha
  Post-emergence action against MATIN: 80%
MATIN [1]; 20 g/ha
  Post-emergence action against MATIN: 90%
TRZAS [2]
  Damage to TRZAS: 30%
ZEAMX [3]
  Damage to ZEAMX: 0%
VERPE
  Post-emergence action against VERPE: 90%
ZEAMX [4]
  Damage to ZEAMX: 0%
POLCO [5]
  Post-emergence action against POLCO: 80%
ORYZA [6]
  Damage to ORYZA: 80%
POLCO [7]
  Pre-emergence action against POLCO: 80%
SETVI [8]; 20 g/ha
  Pre-emergence action against SETVI: 80%
SETVI [8]; 80 g/ha
  Pre-emergence action against SETVI: 100%
PHBPU [9]
  Pre-emergence action against PHBPU: 100%
SETVI [10]; 5 g/ha
  Post-emergence action against SETVI: 80%
SETVI [10]; 20 g/ha
  Post-emergence action against SETVI: 100%
TRZAS [11]
  Damage to TRZAS: 60%
AVEFA [12]
  Pre-emergence action against AVEFA: 80%
VIOTR [13]; 20 g/ha
  Pre-emergence action against VIOTR: 100%
VIOTR [13]; 80 g/ha
  Pre-emergence action against VIOTR: 100%
ALOMY
  Pre-emergence action against ALOMY: 80%
MATIN [14]; 20 g/ha
  Pre-emergence action against MATIN: 100%
MATIN [14]; 80 g/ha
  Pre-emergence action against MATIN: 100%
AMARE [15]; 1.25 g/ha
  Post-emergence action against AMARE: 100%
AMARE [15]; 5 g/ha
  Post-emergence action against AMARE: 100%
AMARE [15]; 20 g/ha
  Post-emergence action against AMARE: 100%
ECHCG [16]; 5 g/ha
  Pre-emergence action against ECHCG: 90%
ECHCG [16]; 20 g/ha
  Pre-emergence action against ECHCG: 100%
ECHCG [16]; 80 g/ha
  Pre-emergence action against ECHCG: 100%
ECHCG [17]; 5 g/ha
  Post-emergence action against ECHCG: 100%
ECHCG [17]; 20 g/ha
  Post-emergence action against ECHCG: 100%
ORYZA [18]
  Damage to ORYZA: 70%
PHBPU [19]; 5 g/ha
  Post-emergence action against PHBPU: 100%
PHBPU [19]; 20 g/ha
  Post-emergence action against PHBPU: 100%
AVEFA [20]
  Post-emergence action against AVEFA: 80%
AMARE [21]; 20 g/ha
  Pre-emergence action against AMARE: 100%
AMARE [21]; 80 g/ha
  Pre-emergence action against AMARE: 100%
VIOTR [22]; 1.25 g/ha
  Post-emergence action against VIOTR: 90%
VIOTR [22]; 5 g/ha
  Post-emergence action against VIOTR: 100%
VIOTR [22]; 20 g/ha
  Post-emergence action against VIOTR: 100%
